Experiments:
U87MG tumor = assay: Tumor xenograft model, U87MG, tumor growth inhibition; format: in vivo, nude mice (BALB/cA nu/nu); details: 10 mg/kg p.o. QD, day 22
[1] = In vivo pharmacokinetic study in rats
Procedure: An In Vivo Pharmacokinetic Study in Rats
For intravenous injection, rats are given a dose of 1 mg/kg. For oral administration, rats are given a dose of 5 mg/kg. […] The whole blood is centrifuged at 8000 rpm for 5 min to collect plasma, which is then transferred to 96-well pallet, and stored at −20° C. till LC-MS/MS testing.
Pharmacokinetic parameters among rats after medication are estimated using the non-compartment model of software WinNonlin.
The peak concentration, Cmax: the actual measurements are used;

VEGFR-2 (h) = VEGFR-2 (h) (Homo sapiens (Human), UniProt P35968); assay: HTRF KinEASE TK kinase inhibition assay, VEGFR-2; format: biochemical
Sequence of VEGFR-2 (h) (P35968 20-1356): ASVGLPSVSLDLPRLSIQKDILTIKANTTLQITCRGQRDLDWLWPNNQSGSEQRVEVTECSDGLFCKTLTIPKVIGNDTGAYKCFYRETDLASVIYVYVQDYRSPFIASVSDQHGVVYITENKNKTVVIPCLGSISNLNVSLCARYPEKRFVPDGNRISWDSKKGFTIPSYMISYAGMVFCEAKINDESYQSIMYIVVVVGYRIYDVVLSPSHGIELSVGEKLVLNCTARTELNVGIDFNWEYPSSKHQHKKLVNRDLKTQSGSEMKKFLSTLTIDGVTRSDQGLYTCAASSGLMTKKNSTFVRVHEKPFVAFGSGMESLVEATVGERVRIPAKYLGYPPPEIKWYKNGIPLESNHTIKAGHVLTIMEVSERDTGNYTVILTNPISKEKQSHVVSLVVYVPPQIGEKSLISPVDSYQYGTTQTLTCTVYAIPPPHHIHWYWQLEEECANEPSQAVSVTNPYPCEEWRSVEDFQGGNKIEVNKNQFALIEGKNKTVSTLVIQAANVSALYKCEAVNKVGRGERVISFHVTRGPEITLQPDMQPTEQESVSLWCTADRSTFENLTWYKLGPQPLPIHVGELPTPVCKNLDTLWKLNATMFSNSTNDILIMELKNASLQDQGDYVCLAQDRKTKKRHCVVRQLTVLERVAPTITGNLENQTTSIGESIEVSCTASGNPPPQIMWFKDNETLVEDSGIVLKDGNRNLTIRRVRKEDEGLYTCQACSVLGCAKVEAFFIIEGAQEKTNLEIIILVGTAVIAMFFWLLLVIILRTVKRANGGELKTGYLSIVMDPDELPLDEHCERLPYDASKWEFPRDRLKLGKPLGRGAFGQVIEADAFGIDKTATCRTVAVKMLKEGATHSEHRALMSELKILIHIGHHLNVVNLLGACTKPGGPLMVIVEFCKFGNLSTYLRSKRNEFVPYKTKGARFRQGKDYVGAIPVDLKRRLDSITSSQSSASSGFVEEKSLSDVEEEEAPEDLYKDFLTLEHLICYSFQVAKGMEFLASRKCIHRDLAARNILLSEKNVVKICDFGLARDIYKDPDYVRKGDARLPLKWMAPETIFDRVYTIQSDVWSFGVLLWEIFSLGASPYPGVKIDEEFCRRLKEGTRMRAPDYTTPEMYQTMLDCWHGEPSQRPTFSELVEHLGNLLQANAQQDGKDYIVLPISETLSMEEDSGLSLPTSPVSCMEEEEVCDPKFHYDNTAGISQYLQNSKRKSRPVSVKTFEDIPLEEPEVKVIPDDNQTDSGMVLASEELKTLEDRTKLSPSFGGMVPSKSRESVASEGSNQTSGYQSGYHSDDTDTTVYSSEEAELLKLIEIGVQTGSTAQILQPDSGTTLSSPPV

c-Met (h) = c-Met (h) (Homo sapiens (Human), UniProt P08581); assay: HTRF KinEASE TK kinase inhibition assay, c-Met; format: biochemical
Sequence of c-Met (h) (P08581 25-1390): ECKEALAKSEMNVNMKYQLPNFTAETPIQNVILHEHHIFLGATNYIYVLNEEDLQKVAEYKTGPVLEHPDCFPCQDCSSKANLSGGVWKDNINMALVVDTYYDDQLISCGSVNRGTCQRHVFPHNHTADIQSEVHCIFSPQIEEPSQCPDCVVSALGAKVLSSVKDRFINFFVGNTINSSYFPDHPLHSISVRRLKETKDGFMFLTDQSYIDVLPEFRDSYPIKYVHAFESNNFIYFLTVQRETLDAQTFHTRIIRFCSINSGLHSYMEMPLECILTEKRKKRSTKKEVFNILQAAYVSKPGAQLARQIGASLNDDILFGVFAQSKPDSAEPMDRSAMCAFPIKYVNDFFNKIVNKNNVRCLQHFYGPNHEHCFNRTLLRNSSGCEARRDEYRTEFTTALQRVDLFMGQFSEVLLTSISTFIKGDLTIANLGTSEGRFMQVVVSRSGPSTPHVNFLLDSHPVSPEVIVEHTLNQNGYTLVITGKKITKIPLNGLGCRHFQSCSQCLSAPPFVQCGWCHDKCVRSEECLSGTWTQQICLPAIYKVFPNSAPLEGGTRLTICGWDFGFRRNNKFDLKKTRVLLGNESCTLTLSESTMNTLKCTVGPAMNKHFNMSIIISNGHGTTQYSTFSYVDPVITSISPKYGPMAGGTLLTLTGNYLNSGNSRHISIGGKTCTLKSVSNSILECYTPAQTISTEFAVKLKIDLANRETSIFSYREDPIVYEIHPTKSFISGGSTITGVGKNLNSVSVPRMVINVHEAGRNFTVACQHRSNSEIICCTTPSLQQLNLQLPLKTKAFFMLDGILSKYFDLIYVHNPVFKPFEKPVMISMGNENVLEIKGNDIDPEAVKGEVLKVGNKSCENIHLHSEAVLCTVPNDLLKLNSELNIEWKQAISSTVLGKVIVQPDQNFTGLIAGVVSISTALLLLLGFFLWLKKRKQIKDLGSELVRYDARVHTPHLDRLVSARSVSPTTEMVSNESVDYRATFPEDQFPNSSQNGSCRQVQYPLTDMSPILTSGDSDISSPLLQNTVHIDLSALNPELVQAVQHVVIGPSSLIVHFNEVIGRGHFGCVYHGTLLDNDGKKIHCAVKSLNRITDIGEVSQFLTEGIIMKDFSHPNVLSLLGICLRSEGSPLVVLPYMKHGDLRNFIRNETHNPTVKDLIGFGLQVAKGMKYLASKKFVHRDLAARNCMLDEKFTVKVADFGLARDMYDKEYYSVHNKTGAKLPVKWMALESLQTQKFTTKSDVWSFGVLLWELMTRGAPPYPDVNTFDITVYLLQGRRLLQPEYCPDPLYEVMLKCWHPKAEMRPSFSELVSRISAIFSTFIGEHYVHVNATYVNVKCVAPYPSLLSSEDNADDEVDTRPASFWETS

Axl kinase = Axl kinase (Homo sapiens (Human), UniProt P30530); assay: HTRF KinEASE TK kinase inhibition assay, Axl; format: biochemical
Sequence of Axl kinase (P30530 26-894): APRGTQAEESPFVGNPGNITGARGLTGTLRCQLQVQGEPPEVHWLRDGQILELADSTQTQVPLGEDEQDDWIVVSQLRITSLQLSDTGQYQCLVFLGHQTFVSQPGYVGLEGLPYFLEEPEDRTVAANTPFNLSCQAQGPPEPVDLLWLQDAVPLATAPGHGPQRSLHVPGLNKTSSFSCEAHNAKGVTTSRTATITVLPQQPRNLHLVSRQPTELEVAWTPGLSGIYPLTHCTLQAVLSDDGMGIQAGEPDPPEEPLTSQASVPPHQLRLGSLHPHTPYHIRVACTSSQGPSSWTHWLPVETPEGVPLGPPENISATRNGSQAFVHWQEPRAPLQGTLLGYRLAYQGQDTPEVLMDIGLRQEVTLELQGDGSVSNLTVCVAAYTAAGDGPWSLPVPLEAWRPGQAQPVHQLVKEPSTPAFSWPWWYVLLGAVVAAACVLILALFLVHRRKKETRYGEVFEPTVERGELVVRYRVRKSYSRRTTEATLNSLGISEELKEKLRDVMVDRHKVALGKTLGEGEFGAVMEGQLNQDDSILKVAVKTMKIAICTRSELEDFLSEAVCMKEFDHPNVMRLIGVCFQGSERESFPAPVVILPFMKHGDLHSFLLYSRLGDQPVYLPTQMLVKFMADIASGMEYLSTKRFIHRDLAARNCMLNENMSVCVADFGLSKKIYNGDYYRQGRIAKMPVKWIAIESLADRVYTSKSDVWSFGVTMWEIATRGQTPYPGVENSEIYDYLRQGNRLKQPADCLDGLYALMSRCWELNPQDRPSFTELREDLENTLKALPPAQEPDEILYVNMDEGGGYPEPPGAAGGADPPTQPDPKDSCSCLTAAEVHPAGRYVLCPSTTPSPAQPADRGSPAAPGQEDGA

RET = RET (Homo sapiens (Human), UniProt P07949); assay: HTRF KinEASE TK kinase inhibition assay, RET; format: biochemical
Sequence of RET (P07949 29-1114): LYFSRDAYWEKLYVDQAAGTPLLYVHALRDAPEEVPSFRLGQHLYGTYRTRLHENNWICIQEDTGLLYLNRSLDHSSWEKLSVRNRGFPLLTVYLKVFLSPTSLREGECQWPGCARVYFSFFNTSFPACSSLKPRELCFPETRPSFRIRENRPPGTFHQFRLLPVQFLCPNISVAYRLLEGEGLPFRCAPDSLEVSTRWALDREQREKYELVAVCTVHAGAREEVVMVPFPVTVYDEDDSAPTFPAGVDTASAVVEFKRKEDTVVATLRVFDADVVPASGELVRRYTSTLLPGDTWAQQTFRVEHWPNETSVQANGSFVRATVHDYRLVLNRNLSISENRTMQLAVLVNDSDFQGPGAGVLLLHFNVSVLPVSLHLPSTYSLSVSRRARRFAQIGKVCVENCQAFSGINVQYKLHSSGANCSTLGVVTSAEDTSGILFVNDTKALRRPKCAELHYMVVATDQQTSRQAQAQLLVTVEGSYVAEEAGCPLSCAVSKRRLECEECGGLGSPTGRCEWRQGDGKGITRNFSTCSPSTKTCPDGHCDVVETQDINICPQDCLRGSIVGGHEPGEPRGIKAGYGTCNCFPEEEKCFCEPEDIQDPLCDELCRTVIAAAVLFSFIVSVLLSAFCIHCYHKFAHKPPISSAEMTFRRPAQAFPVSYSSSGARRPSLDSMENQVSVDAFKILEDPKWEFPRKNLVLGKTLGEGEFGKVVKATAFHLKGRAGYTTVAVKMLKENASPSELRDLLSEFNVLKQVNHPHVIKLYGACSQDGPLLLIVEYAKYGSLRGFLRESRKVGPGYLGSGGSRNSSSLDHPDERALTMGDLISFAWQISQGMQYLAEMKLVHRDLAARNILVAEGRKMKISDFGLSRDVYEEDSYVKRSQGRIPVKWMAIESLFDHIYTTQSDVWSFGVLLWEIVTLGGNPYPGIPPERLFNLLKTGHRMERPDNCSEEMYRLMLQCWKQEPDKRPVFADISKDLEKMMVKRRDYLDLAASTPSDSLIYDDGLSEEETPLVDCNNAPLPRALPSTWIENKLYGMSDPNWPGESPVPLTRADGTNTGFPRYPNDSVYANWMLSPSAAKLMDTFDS
Procedure: A study on inhibition of protein kinases activity at in vitro biochemical level
Material and method: kinases such as c-Met, VEGFR-2, Axl and RET, obtained from Invitrogen; HTRF KinEASE; TK kit (Cisbio Company); 384-well plate (Greiner Company); ATP (Sigma Company), MgCl2 (Sigma Company); PHERAstar FS multifunctional plate reader (BMG Company); conventional centrifuge (StaiteXiangyi Company); incubator (Binder Company).
Preparation of working solution of the compounds: Before test, aliquots of the compounds are removed from the refrigerator, and diluted with pure DMSO to 50× of the level needed; and then the compounds are diluted with deionized water to 4× of the level needed;
Preparation of 1.33× enzymatic buffer: 5× enzymatic buffer (from HTRF kit) is diluted to 1.33× with deionized water, and appropriate components of the final level 1.33× are added: 1.33 mmol/L dithiothreitol (DTT) and 1.33 mmol/L MgCl2;
Preparation of kinase working solution: Met is diluted to 2× final level required, 0.2 ng/μL, with 1.33× enzymatic buffer; […]
Reading HTRF signal: PHERAstar FS is used to read the testing signal, and its setting is as following:
For the original data read from each well, ratio=665 nm/620 nm; […]

Row | Structure (SMILES) | IC50 (VEGFR-2 (h)) [nM] | IC50 (c-Met (h)) [nM] | also measured
1 | COc1ccc2c(Oc3ccc(Nc4nccc5[nH]cc(-c6ccc(F)cc6)c(=O)c45)cc3F)ccnc2c1 [Comparative compound A, reference compound] |  |  | Tumor growth inhibition rate, % TGI (U87MG tumor): 55.3%
2 | O=c1c(-c2ccc(F)cc2)c[nH]c2ccnc(Nc3ccc(Oc4ccnc5cc(OCCO)ccc45)c(F)c3)c12 [Comparative compound C, reference compound] |  |  | CL ([1]; 5 mg/kg i.g.): 31.7 mL/min/kg; Vz ([1]; 5 mg/kg i.g.): 7.89 L/kg; AUC(0-t) ([1]; rat, plasma, iv, 1 mg/kg i.v.): 2290 ng·h/mL; Cmax ([1]; rat, plasma, iv, 1 mg/kg i.v.): 970 ng/mL; clearance ([1]; rat, plasma, iv, 1 mg/kg i.v.): 4.83 mL/min/kg; half-life ([1]; rat, plasma, iv, 1 mg/kg i.v.): 2.35 h; Vd ([1]; rat, plasma, iv, 1 mg/kg i.v., read-out: Vz): 1.21 L/kg; bioavailability ([1]; rat, plasma, oral, 5 mg/kg i.g. vs 1 mg/kg i.v., read-out: F (absolute bioavailability)): 16.2%; AUC(0-t) ([1]; rat, plasma, po, 5 mg/kg i.g.): 1850 ng·h/mL; Cmax ([1]; rat, plasma, po, 5 mg/kg i.g.): 530 ng/mL; half-life ([1]; rat, plasma, po, 5 mg/kg i.g.): 2.14 h
3 | COC(C)(C)COc1ccc2c(Oc3ccc(Nc4nccc5[nH]cc(-c6ccc(F)cc6)c(=O)c45)cc3F)ccnc2c1 [Comparative compound D, reference compound] | 60 |  | 
4 | COc1cc2c(Oc3ccc(Nc4nccc5[nH]cc(-c6ccc(F)cc6)c(=O)c45)cc3F)ccnc2cc1OCC(C)(C)O [Example 1, 5-((3-fluoro-4-((7-(2-hydroxy-2-methylpropoxy)-6-methoxyquinolin-4-yl)oxy)-phenyl)amino)-3-(4-fluorophenyl)-1,6-naphthyridin-4(1H)-one] |  | 19.4 | 
5 | COc1cc2c(Oc3ccc(Nc4nccc5[nH]cc(-c6ccc(F)cc6)c(=O)c45)cc3F)ccnc2cc1OCC(C)O (centres unmarked) [Example 2, 5-((3-fluoro-4-((7-(2-hydroxypropoxy)-6-methoxyquinolin-4-yl)oxy)phenyl)-amino)-3-(4-fluorophenyl)-1,6-naphthyridin-4(1H)-one] |  | 15.6 | 
6 | COc1cc2c(Oc3ccc(Nc4nccc5[nH]cc(-c6ccccc6)c(=O)c45)cc3F)ccnc2cc1OCC(C)(C)O [Example 3, 5-((3-fluoro-4-((7-(2-hydroxy-2-methylpropoxy)-6-methoxyquinolin-4-yl)oxy)-phenyl)amino)-3-phenyl-1,6-naphthyridin-4(1H)-one] |  | 20.1 | 
7 | COc1cc2nccc(Oc3ccc(Nc4nccc5[nH]cc(-c6ccc(F)cc6)c(=O)c45)cc3F)c2cc1OCC(C)(C)O [Example 8, 5-((3-fluoro-4-((6-(2-hydroxy-2-methylpropoxy)-7-methoxyquinolin-4-yl)oxy)-phenyl)amino)-3-(4-fluorophenyl)-1,6-naphthyridin-4(1H)-one] |  | 16.8 | 
8 | CC(C)(O)COc1ccc2c(Oc3ccc(Nc4nccc5c4c(=O)c(-c4ccc(F)cc4)cn5C4CC4)cc3F)ccnc2c1 [Example 14, 1-cyclopropyl-5-((3-fluoro-4-((7-(2-hydroxy-2-methylpropoxy)quinolin-4-yl)oxy)-phenyl)amino)-3-(4-fluorophenyl)-1,6-naphthyridin-4(1H)-one] | > 5000 | 14.3 | 
9 | CC(C)(O)COc1ccc2c(Oc3ccc(Nc4nccc5c4c(=O)c(-c4ccc(F)cc4)cn5CC4CO4)cc3F)ccnc2c1 (centres unmarked) [Example 15, 5-((3-fluoro-4-((7-(2-hydroxy-2-methylpropoxy)quinolin-4-yl)oxy)phenyl)amino)-3-(4-fluorophenyl)-1-(oxiran-2-ylmethyl)-1,6-naphthyridin-4(1H)-one] | > 5000 | 22.4 | 
10 | COCCn1cc(-c2ccc(F)cc2)c(=O)c2c(Nc3ccc(Oc4ccnc5cc(OCC(C)(C)O)ccc45)c(F)c3)nccc21 [Example 16, 5-((3-fluoro-4-((7-(2-hydroxy-2-methylpropoxy)quinolin-4-yl)oxy)phenyl)amino)-3-(4-fluorophenyl)-1-(2-methoxyethyl)-1,6-naphthyridin-4(1H)-one] | > 5000 | 14.4 | 
11 | CC(C)(O)COc1ccc2c(Oc3ccc(Nc4nccc5c4c(=O)c(-c4ccc(F)cc4)cn5CCO)cc3F)ccnc2c1 [Example 17, 5-((3-fluoro-4-((7-(2-hydroxy-2-methylpropoxy)quinolin-4-yl)oxy)phenyl)amino)-3-(4-fluorophenyl)-1-(2-hydroxyethyl)-1,6-naphthyridin-4(1H)-one] | > 5000 | 40 | 
12 | CC(C)(O)COc1ccc2c(Oc3ccc(Nc4nccc5c4c(=O)c(-c4ccc(F)cc4)cn5Cc4ccccc4)cc3F)ccnc2c1 [Example 18, 1-benzyl-5-((3-fluoro-4-((7-(2-hydroxy-2-methylpropoxy)quinolin-4-yl)oxy)phenyl)-amino)-3-(4-fluorophenyl)-1,6-naphthyridin-4(1H)-one] | > 5000 | 40.3 | 

More lines, main results first:

Row | IC50 (VEGFR-2 (h)) [nM] | IC50 (c-Met (h)) [nM] | Structure (SMILES) | also measured
13 |  | 9.4 | CC(C)(O)COc1ccc2c(Oc3ccc(Nc4nccc5[nH]cc(-c6ccccc6F)c(=O)c45)cc3F)ccnc2c1 [Example 5, 5-((3-fluoro-4-((7-(2-hydroxy-2-methylpropoxy)quinolin-4-yl)oxy)phenyl)amino)-3-(2-fluorophenyl)-1,6-naphthyridin-4(1H)-one] | 
14 |  | 7.9 | CC(C)(O)COc1ccc2c(Oc3ccc(Nc4nccc5[nH]cc(-c6cccc(F)c6)c(=O)c45)cc3F)ccnc2c1 [Example 6, 5-((3-fluoro-4-((7-(2-hydroxy-2-methylpropoxy)quinolin-4-yl)oxy)phenyl)amino)-3-(3-fluorophenyl)-1,6-naphthyridin-4(1H)-one] | 
15 |  | 7.4 | CC(C)(O)COc1ccc2c(Oc3ccc(Nc4nccc5[nH]cc(-c6ccccc6)c(=O)c45)cc3F)ccnc2c1 [Example 7, 5-((3-fluoro-4-((7-(2-hydroxy-2-methylpropoxy)quinolin-4-yl)oxy)phenyl)amino)-3-phenyl-1,6-naphthyridin-4(1H)-one] | IC50 (Axl kinase): 14.9 nM; IC50 (RET): 53 nM
16 |  | 13.3 | COc1cc2nccc(Oc3ccc(Nc4nccc5[nH]cc(-c6ccccc6)c(=O)c45)cc3F)c2cc1OCC(C)(C)O [Example 9, 5-((3-fluoro-4-((6-(2-hydroxy-2-methylpropoxy)-7-methoxyquinolin-4-yl)oxy)-phenyl)amino)-3-phenyl-1,6-naphthyridin-4(1H)-one] | 
17 | > 5000 | 12.7 | Cn1cc(-c2ccc(F)cc2)c(=O)c2c(Nc3ccc(Oc4ccnc5cc(OCC(C)(C)O)ccc45)c(F)c3)nccc21 [Example 10, 5-((3-fluoro-4-((7-(2-hydroxy-2-methylpropoxy)quinolin-4-yl)oxy)phenyl)amino)-3-(4-fluorophenyl)-1-methyl-1,6-naphthyridin-4(1H)-one] | 
18 | > 5000 | 9.5 | CCn1cc(-c2ccc(F)cc2)c(=O)c2c(Nc3ccc(Oc4ccnc5cc(OCC(C)(C)O)ccc45)c(F)c3)nccc21 [Example 11, 1-ethyl-5-((3-fluoro-4-((7-(2-hydroxy-2-methylpropoxy)quinolin-4-yl)oxy)phenyl)-amino)-3-(4-fluorophenyl)-1,6-naphthyridin-4(1H)-one] | 
19 | > 5000 | 7.2 | CCCn1cc(-c2ccc(F)cc2)c(=O)c2c(Nc3ccc(Oc4ccnc5cc(OCC(C)(C)O)ccc45)c(F)c3)nccc21 [Example 12, 5-((3-fluoro-4-((7-(2-hydroxy-2-methylpropoxy)quinolin-4-yl)oxy)phenyl)amino)-3-(4-fluorophenyl)-1-propyl-1,6-naphthyridin-4(1H)-one] | 
20 | > 5000 | 9 | CC(C)n1cc(-c2ccc(F)cc2)c(=O)c2c(Nc3ccc(Oc4ccnc5cc(OCC(C)(C)O)ccc45)c(F)c3)nccc21 [Example 13, 5-((3-fluoro-4-((7-(2-hydroxy-2-methylpropoxy)quinolin-4-yl)oxy)phenyl)amino)-3-(4-fluorophenyl)-1-isopropyl-1,6-naphthyridin-4(1H)-one] | 
